Active and inactive are the calls of the source.
How the values were obtained:
[1] = intracellular Trypanosoma cruzi inhibitors in host cells – cell-based, plate reader, cherry-pick samples, set 3, dose response (AID 651818); assay type: functional;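 note: compounds incubated with infected cells for about four days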
Leucine aminopeptidase = molecular target: T1, Leucine aminopeptidase (Plasmodium falciparum 3D7, UniProt Q8IL11); test: P. falciparum M17LAP inhibitors, primary screen, biochemical, fluorogenic H-Leu-NHMec substrate, 1536-well (AID 1619); assay type: functional
T1 sequence (Q8IL11 whole entry): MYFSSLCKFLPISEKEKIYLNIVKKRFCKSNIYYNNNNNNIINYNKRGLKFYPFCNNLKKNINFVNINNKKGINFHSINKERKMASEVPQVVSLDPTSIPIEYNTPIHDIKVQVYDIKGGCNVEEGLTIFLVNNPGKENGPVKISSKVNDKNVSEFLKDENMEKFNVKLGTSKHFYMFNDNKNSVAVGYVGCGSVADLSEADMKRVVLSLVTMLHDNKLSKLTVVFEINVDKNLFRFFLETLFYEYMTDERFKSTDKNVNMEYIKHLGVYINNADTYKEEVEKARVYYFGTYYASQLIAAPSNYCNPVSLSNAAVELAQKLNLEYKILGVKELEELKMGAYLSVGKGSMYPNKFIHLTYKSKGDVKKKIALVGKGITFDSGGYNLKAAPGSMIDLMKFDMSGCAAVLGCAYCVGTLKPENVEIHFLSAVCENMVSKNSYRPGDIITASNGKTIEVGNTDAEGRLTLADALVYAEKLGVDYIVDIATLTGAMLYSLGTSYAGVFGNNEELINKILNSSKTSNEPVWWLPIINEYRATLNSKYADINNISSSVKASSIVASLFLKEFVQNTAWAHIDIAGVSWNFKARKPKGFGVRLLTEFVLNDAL

Cytochrome P450 3A4 [2] = molecular target: T2, Cytochrome P450 3A4 (Homo sapiens, UniProt P08684); settings: Potency
T2 sequence (P08684 whole entry): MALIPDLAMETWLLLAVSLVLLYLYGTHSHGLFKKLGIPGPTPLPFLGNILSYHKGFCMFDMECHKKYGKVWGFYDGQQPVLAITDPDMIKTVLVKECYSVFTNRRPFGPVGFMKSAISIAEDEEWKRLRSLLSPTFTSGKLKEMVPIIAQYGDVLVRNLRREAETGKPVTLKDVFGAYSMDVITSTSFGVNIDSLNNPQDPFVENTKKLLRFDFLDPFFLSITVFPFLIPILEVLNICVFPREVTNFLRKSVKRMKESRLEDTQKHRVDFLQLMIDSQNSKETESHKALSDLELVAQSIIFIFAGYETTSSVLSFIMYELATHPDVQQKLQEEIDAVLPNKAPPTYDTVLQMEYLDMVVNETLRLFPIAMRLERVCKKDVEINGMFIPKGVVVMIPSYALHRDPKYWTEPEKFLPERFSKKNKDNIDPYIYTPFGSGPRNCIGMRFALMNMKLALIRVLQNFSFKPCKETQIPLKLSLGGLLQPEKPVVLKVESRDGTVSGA

[3] = A cytotoxicity screen of small molecule inhibitors of the PhoP region in Salmonella typhi identified in the primary screen. [Related pubchem assays: 1850, 1864, 1985 ]; assay type: functional
Protein skinhead-1 = molecular target: T3, Protein skinhead-1 (Caenorhabditis elegans, UniProt P34707); assay type: functional
T3 sequence (P34707 whole entry): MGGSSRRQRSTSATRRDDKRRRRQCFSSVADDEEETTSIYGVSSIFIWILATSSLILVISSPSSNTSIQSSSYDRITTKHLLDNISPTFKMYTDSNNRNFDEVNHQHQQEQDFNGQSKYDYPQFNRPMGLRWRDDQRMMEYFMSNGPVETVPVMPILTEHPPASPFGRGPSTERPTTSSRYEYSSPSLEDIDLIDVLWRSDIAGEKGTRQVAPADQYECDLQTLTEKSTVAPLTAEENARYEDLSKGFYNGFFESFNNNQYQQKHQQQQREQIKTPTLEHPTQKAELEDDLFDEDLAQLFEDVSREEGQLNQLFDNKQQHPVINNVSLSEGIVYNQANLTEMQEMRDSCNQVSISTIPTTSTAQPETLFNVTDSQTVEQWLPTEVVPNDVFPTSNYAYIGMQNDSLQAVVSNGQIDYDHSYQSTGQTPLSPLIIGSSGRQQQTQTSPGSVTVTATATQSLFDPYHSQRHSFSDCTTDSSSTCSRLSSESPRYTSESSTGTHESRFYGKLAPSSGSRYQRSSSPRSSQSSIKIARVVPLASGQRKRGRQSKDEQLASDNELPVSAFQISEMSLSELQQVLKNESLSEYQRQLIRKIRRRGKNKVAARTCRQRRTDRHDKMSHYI

Cytochrome P450 2D6 = Cytochrome P450 2D6 (Homo sapiens, UniProt P10635);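 note: CYP2D6 member of a cytochrome P450 panel assay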
Chain of Cytochrome P450 2D6 (P10635 whole entry): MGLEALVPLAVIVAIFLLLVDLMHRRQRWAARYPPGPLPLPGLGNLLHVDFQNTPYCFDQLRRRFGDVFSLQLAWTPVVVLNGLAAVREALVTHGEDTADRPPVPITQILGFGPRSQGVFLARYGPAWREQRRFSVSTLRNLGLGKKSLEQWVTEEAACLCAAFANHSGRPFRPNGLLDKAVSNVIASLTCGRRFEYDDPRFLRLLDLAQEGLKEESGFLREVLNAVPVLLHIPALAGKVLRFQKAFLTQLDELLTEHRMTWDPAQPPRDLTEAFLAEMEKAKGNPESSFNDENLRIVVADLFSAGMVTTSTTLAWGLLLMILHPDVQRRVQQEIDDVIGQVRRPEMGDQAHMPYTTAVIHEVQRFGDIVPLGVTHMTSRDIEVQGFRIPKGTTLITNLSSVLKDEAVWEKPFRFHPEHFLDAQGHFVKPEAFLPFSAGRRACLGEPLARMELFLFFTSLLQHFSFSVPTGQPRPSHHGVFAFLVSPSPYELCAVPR

Protein RecA = molecular target: T4, Protein RecA (Mycobacterium tuberculosis, UniProt P9WHJ3); test: Fluorescence Cell-Free Homogeneous Dose Retest to Identify Inhibitors of RecA-Intein Splicing Activity. [Related pubchem assays (depositor defined):AID2097, AID2223, AID489010, AID492950]; assay type: functional
T4 sequence (P9WHJ3 whole entry): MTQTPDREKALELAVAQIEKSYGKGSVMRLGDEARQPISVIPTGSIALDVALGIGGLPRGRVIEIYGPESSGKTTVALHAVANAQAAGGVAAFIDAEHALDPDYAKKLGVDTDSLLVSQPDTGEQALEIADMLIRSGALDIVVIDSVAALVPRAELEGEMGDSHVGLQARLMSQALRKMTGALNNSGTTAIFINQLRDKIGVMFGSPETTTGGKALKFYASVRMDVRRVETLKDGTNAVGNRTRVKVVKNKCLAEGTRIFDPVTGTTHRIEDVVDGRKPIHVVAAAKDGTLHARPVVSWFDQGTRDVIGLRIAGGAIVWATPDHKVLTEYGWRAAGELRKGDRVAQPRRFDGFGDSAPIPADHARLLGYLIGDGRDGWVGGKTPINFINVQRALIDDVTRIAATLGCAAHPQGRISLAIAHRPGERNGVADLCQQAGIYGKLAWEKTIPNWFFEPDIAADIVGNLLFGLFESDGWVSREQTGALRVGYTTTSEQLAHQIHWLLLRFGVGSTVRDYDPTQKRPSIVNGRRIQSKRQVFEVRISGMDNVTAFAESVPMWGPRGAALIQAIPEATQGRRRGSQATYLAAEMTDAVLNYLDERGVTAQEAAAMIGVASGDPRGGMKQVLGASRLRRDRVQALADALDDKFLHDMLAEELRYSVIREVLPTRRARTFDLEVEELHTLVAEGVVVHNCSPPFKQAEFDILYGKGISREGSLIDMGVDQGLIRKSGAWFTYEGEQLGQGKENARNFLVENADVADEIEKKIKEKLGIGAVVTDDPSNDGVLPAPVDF

[4] = molecular target: T5, Replicative DNA helicase DnaB (Mycobacterium tuberculosis, UniProt P9WMR3); test: DnaB intein splicing inhibitors, dose response, biochemical, cell-free fluorescence (AID 449749); assay type: functional
T5 sequence (P9WMR3 whole entry): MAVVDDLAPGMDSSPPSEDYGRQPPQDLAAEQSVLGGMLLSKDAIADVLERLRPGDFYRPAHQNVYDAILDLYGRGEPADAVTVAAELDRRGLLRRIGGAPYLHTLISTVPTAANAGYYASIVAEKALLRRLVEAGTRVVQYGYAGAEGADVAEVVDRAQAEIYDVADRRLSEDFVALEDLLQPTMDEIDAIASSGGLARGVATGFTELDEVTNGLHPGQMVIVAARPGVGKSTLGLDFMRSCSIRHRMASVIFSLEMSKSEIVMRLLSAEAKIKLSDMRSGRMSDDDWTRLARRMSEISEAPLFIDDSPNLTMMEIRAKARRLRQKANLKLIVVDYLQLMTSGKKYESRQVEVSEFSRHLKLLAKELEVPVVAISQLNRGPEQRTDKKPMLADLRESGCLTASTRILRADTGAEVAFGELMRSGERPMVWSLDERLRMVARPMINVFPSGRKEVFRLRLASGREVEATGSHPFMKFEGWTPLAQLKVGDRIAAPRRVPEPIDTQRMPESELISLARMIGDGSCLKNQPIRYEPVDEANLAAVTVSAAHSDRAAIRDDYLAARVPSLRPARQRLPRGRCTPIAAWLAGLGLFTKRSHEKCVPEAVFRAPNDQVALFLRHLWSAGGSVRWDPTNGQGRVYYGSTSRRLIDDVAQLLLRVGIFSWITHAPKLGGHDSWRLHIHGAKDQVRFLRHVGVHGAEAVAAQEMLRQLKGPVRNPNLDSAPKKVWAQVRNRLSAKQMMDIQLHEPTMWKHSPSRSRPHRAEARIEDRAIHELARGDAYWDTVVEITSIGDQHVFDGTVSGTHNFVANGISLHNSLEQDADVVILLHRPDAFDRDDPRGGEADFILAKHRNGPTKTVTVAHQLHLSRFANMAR

[5] = HEK-293T viability loss after treatment – luminescence, T-cell screen hits, cytotoxicity control for TCR NF-kB inhibitor project, dose response (AID 489026); assay type: functional, cell-based;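 note: cells exposed to compound about 14 hours before the viability readout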
[6] = molecular target: T6, Calpain-2 catalytic subunit (Sus scrofa, UniProt P43367); test: m-calpain protease blockers, concentration series – biochemical, fluorogenic peptide substrate, dose response (AID 1420); assay type: functional
T6 sequence (P43367 whole entry): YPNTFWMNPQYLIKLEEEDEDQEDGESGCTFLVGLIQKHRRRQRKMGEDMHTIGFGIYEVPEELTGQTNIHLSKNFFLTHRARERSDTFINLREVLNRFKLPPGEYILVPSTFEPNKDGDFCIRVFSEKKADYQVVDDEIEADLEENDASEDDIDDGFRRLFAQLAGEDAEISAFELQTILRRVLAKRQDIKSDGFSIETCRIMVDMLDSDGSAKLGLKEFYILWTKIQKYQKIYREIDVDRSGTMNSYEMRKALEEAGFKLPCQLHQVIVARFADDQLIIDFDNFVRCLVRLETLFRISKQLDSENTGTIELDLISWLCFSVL

Cytochrome P450 3A4 [7] = molecular target: T2, Cytochrome P450 3A4

C[C@@H]1CN([C@H](C)CO)C(=O)Cc2cc(NC(=O)Nc3ccc4c(c3)OCO4)ccc2O[C@@H]1CN(C)Cc1ccc(Oc2ccccc2)cc1
AC50 [1]: 2.87 µM (active)

COc1nccnc1NS(=O)(=O)c1ccc(/N=C/c2c(C)[nH]n(-c3ccccc3)c2=O)cc1
IC50 (Leucine aminopeptidase): 35 µM (active)

Oc1ccccc1O [CATECHOL]
AC50 (Cytochrome P450 3A4 [2]): 10 µM (inconclusive)

Cc1nnc(SCC(=O)Nc2cc(S(=O)(=O)N3CCCC3)ccc2Cl)s1
EC50 [3]: > 50 µM (active)

CC1CCc2c(C(=O)Nc3nccs3)csc2C1 (stereo not given)
IC50 (Protein skinhead-1): > 100 µM (inactive) | AC50 (Cytochrome P450 2D6): 3.55 µM (inconclusive)

O=C(c1ccco1)c1c[nH]nc1-c1ccc(Cl)cc1O
IC50 (Leucine aminopeptidase): 101 µM (active)

COc1ccc(C2OCC3(COC(C)=O)C(C)C=C(C)C2C3C)cc1 (stereo not given)
AC50 (Cytochrome P450 3A4 [2]): 15.8 µM (inconclusive)

C[C@@H]1CCCCO[C@H](CN(C)Cc2ccc(C(=O)Nc3ccccc3N)cc2)[C@@H](C)CN([C@H](C)CO)C(=O)c2cc(NS(=O)(=O)c3ccc(F)cc3)ccc2O1
AC50 [1]: 1.83 µM (active)

N#CC1=C(N)Oc2nc(-c3ccccc3)[nH]c2C1c1cccnc1 (stereo not given)
EC50 (Protein RecA): 2.6 µM (active) | AC50 [4]: 11.3 µM (active) | IC50 (Leucine aminopeptidase): 66.6 µM (active)

CCOc1ccc(NC(=O)CSc2n[nH]c(N)n2)c([N+](=O)[O-])c1
IC50 (Leucine aminopeptidase): 12.7 µM (active)

Cc1nc(N2CCOCC2)c2nc(-c3ccccc3)n(CCCN3CCCCC3C)c2n1 (stereo not given)
AC50 (Cytochrome P450 3A4 [2]): 15.8 µM (inconclusive)

O=C1CSC(=S)N1c1cccc(O)c1
EC50 [3]: > 50 µM (active)

COC(=O)CCC(=O)NC(=S)Nc1sc(C)c(C)c1C(N)=O
IC50 [5]: > 80 µM (inactive)

CNC[C@H]1Oc2c(NC(=O)Nc3ccc(OC)cc3)cccc2C(=O)N([C@H](C)CO)C[C@@H]1C
AC50 [1]: 20 µM (inactive)

CCC12C=CCN3CCC4(c5ccc(OC)cc5N(C)C4[C@@](O)(C(=O)OC)C1OC(C)=O)C32 (stereo not given in full)
AC50 (Cytochrome P450 3A4 [2]): 3.98 µM (inconclusive)

CCN(CC)C(=O)C(=O)c1cn(CC(=O)N2CCc3ccccc3C2)c2ccccc12
EC50 [3]: > 50 µM (active)

C/C=C(\C)C(=O)N[C@@H](c1ccccc1)[C@@H](O)C(=O)O[C@H]1C[C@@]2(O)[C@@H](OC(=O)c3ccccc3)C3[C@](C)(C(=O)[C@H](OC(C)=O)C(=C1C)C2(C)C)[C@@H](O)C[C@H]1OC[C@@]31OC(C)=O (stereo not given in full)
IC50 [5]: > 80 µM (inactive)

O=S(=O)(Nc1ncccn1)c1ccc(NC(=S)Nc2ccc(Cl)cc2)cc1
EC50 [3]: > 50 µM (active)

Cn1c(NC(=O)/C=C\c2ccccc2)cc(=O)n(C)c1=O
IC50 [6]: 7.1 µM (not active) | IC50 (Leucine aminopeptidase): 78.4 µM (active)

COc1ccc(C(=O)c2oc3ccc(OC)cc3c2N)cc1
IC50 (Protein skinhead-1): > 100 µM (inactive)

COC(=O)c1ccc(NC(=O)CO/N=C2\CCCc3nonc32)cc1
EC50 [3]: > 50 µM (active)

CC(=O)OC1=C(O)C(=O)c2ccccc2C1=O
EC50 [3]: > 50 µM (active)

C[C@@H]1CN([C@@H](C)CO)C(=O)c2cccc(NC(=O)Nc3ccc(C(F)(F)F)cc3)c2O[C@@H]1CN(C)Cc1ccc(C(=O)Nc2ccccc2N)cc1
AC50 [1]: 0.787 µM (active)

CC(=O)OC1CC2C(C)(C)C(=O)[C@@H]3OC3[C@@]2(C)C2CC[C@]3(C)C(=CC(=O)OC3c3ccoc3)[C@]12C (stereo not given in full)
AC50 (Cytochrome P450 3A4 [2]): 15.8 µM (inconclusive)

O=C(Nc1nc2ccccc2s1)c1ccccc1
IC50 (Protein skinhead-1): > 100 µM (inactive)

O=C(C[n+]1ccc(-c2ccccc2)cc1)Nc1ccc([N+](=O)[O-])cc1
EC50 [3]: > 50 µM (active)

COc1ccc(OC2C=CC(c3ccccc3)OC2CO)c(C(C)=O)c1 (stereo not given)
AC50 (Cytochrome P450 3A4 [2]): 3.98 µM (inconclusive)

O=C(NC(=S)Nc1cccc2c(O)cccc12)c1cccc(Br)c1
IC50 (Protein skinhead-1): > 100 µM (inactive)

C[C@@H]1CN([C@@H](C)CO)C(=O)c2cccc(NC(=O)Nc3ccc4c(c3)OCO4)c2O[C@@H]1CN(C)Cc1ccc(C(=O)Nc2ccccc2N)cc1
AC50 [1]: 3.18 µM (active)

O=C(Cn1c(C(F)(F)F)nc2ccccc21)c1ccc(F)cc1
AC50 (Cytochrome P450 3A4 [7]): 12.6 µM (inconclusive) | IC50 (Protein skinhead-1): > 100 µM (inactive)
